From US9206457B2, “Utilization of pharmacological chaperones to improve manufacturing and purification of biologics” (Amicus Therapeutics, Inc., priority 2009, dated 2015)
Substitutions are numbered along the chain they refer to. Blank lines part the entries; values can stand above or below the molecule they belong to.

What was measured:
GCase = molecular target: T1, GCase (Homo sapiens, UniProt P04062); test: GCase activity in conditioned media of COS-7 cells transfected with human GBA1 plasmid, 72 h; type: cell-based; details: 72 hours expression
T1 construct: expressed in transfected cells; host or cells: COS-7
T1 sequence (P04062 40-536): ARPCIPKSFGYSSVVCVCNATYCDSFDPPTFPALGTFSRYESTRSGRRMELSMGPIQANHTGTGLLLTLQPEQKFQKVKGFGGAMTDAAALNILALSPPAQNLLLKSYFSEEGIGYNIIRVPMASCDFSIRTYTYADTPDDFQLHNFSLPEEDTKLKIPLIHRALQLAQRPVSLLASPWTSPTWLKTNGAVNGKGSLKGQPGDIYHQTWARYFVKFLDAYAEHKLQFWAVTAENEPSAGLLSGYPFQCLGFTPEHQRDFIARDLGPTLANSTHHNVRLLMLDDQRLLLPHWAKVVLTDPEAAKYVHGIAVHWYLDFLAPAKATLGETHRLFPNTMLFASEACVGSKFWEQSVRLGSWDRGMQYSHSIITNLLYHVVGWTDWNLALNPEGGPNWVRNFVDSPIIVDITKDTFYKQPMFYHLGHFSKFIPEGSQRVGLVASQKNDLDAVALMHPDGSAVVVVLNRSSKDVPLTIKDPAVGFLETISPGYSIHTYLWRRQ

α-Gal A [1] = molecular target: T2, α-Gal A (Homo sapiens, UniProt P06280); test: α-Gal A activity in conditioned media of COS-7 cells transfected with GLA plasmid, 72 h; type: cell-based; details: 72 hours expression
T2 construct: expressed in transfected cells; host or cells: COS-7
T2 sequence (P06280 32-429): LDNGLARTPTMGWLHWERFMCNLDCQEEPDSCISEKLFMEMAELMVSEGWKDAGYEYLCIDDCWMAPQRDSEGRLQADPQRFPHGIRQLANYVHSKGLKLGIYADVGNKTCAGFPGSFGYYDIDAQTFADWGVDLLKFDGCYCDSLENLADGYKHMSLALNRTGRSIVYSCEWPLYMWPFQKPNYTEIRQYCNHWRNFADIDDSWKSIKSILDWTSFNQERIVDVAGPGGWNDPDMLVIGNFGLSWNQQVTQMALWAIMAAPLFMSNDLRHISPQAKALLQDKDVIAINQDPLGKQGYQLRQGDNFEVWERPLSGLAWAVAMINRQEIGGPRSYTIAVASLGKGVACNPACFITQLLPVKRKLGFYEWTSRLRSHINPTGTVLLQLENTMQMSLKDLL
Description: COS-7 cells were transiently transfected with empty vector or a plasmid coding for the α-Gal A gene (GLA). […] After 72-hours of protein expression, the conditioned media from each transfection was harvested, and the level of α-Gal A activity was assessed using the substrate […].

[2] = molecular target: T3, acid β-glucosidase (GCase; Cerezyme®) (Homo sapiens, UniProt P04062, R534H); test: SYPRO Orange thermal stability assay (heat denaturation) of GCase; type: binding
T3 construct: purchased Genzyme Corp
T3 sequence (P04062 40-536 R534H): T1 sequence (P04062 40-536) with R495H
Description: FIG. 4 depicts the results of a thermal stability assay that utilizes heat to induce protein denaturation, which is monitored using a SYPRO Orange dye that fluoresces upon binding to hydrophobic amino acids (which are not exposed in a folded protein). Isofagomine increases acid β-glucosidase thermostability as evident by increases in melting temperature in a dose-dependent manner. The experiment was conducted at pH 7.4.
FIG. 8 depicts the stability of recombinant human GCase (Cerazyme®, Genzyme Corp.) at neutral pH (7.4) or acidic pH (5.2) in the presence or absence of 10 μM of IFG as determined in a thermal stability assay. The thermal stability assay utilizes heat to induce protein denaturation, which is monitored using a SYPRO Orange dye that fluoresces upon binding to hydrophobic amino acids (which are not exposed in a folded protein).
A thermal stability experiment as generally described in Example 1 was performed on three compositions of GCase (Cerezyme®):
A thermal stability experiment as generally described in Examples 1 and 4 was performed on three compositions of GCase (Cerezyme®):
Protein denaturation was monitored using SYPRO Orange dye which fluoresces when bound to exposed hydrophobic amino acids.

[3] = molecular target: T3, acid β-glucosidase (GCase; Cerezyme®); test: SYPRO Orange GCase unfolding over time at 37° C.; type: binding
Description: FIG. 5 depicts a SYPRO Orange thermal stability experiment to monitor the unfolding of acid β-glucosidase (GCase; Cerezyme®). GCase (2 μM) was incubated in pH 7.4 or pH 5.2 buffer with or without 10 μM IFG at 37° C. and protein unfolding was monitored every hour over 24 hours.
FIG. 9 depicts a SYPRO Orange thermal stability experiment to monitor the unfolding of acid β-glucosidase (GCase; Cerezyme®). GCase was incubated in pH 7.4 or pH 5.2 buffer with or without 10 μM or 100 μM IFG at 37° C., and protein unfolding was monitored every hour over 24 hours.
FIG. 15 depicts that addition of 50 μM IFG at 3 or 6 hours after incubation of GCase (Cerezyme®) in neutral (pH 7.4) buffer at 37° C. prevents further denaturation of the enzyme as measured by SYPRO dye fluorescence.
In this thermal stability experiment, the concentration of IFG was 10 μM in formulation (3).
In this thermal stability experiment, the concentration of IFG was 0, 10 μM, or 100 μM as described above.
The stability of α-Gal A, α-Glucosidase (GAA), and GCase (Cerezyme®) at 37° C. in neutral (pH 7.4) buffer was measured using the SYPRO Orange for 3, 6 or 24 hours.

GCase (Cerezyme®) [4] = molecular target: T4, GCase (Cerezyme®) (Homo sapiens, UniProt P04062, R534H); test: GCase activity in human plasma at 37° C. (4-MUG); type: in vitro ADME; details: IFG 3 μM, 30 μM, 100 μM, over 4 hours
T4 construct: purchased Genzyme Corp
T4 sequence (P04062 40-536 R534H): T1 sequence (P04062 40-536) with R495H
Description: FIG. 10 depicts the effects of IFG on recombinant human GCase (GCase; Cerezyme®, Genzyme Corp.) activity in human plasma at 37° C. GCase activity was evaluated to assess the ability of an ASSC to prolong the activity of GCase in human plasma over time. Cerezyme (0.5 μM) was incubated in human plasma with increasing concentrations of IFG (3 μM, 30 μM, or 100 μM) at 37° C. over 4 hours. Samples were assayed for GCase enzyme activity using 4-MU-β-glucose at 0.25, 0.5, 1, 2 and 4 hours and the residual GCase activity was expressed as % of initial activity.
The activity of GCase (0.5 μM; Cerazyme®) at 37° C. in human plasma was assessed for increasing concentrations of IFG (3 μM, 30 μM, and 100 μM) as a function time using the substrate 4-MUG.

GCase (Cerezyme®) [5] = molecular target: T4, GCase (Cerezyme®); test: GCase activity over time in neutral or acidic buffer at 37° C. (4-MUG); type: biochemical; details: 1 μM IFG, 10 nM GCase, pH 7.4, 37° C.
acid β-glucosidase = molecular target: T5, acid β-glucosidase (Homo sapiens, UniProt P04062); details: 100 μM chaperone, 48 hours expression, COS-7
T5 sequence (P04062 40-536): T1 sequence (P04062 40-536)

α-Gal A (Fabrazyme®) = molecular target: T6, α-Gal A (Fabrazyme®) (Homo sapiens, UniProt P06280); test: SYPRO Orange thermal stability assay (heat denaturation) of α-Gal A; type: binding; details: 10 and 100 μM DGJ, pH 7.4
T6 construct: purchased
T6 sequence (P06280 32-429): T2 sequence (P06280 32-429)

α-Gal A [6] = molecular target: T2, α-Gal A; test: SYPRO Orange α-Gal A denaturation over time at 37° C.; type: binding; details: 50 μM DGJ added at 3 or 6 hours, pH 7.4, 37° C.
α-Gal A [7] = molecular target: T2, α-Gal A; test: α-Gal A activity in conditioned media of transiently transfected COS-7 cells, 48 h, concanavalin A capture; type: cell-based; details: 100 μM chaperone, 48 hours expression
[8] = molecular target: T7, recombinant human GAA (Myozyme®) (Homo sapiens, UniProt P10253); test: SYPRO Orange thermal stability assay (heat denaturation) of GAA; type: binding
T7 construct: purchased Genzyme Corp
From the text: The thermal stability assay utilizes heat to induce protein denaturation, which is monitored using a SYPRO Orange dye that fluoresces upon binding to hydrophobic amino acids (which are not exposed in a folded protein).
FIG. 3 depicts the results of a thermal stability assay that utilizes heat to induce protein denaturation, which is monitored using a SYPRO Orange dye that fluoresces upon binding to hydrophobic amino acids (which are not exposed in a folded protein). […] The experiment was conducted at pH 7.4.
Denaturation is monitored using a SYPRO Orange dye that fluoresces upon binding to hydrophobic amino acids (which are not exposed in a folded protein).
The thermal stability was performed at pH 7.4 for two formulations, which corresponds to the pH of the ER.
A thermal stability experiment as generally described in Example 1 was performed on four compositions: […]

[9] = molecular target: T7, recombinant human GAA (Myozyme®); test: Residual GAA enzyme activity (4-MU-α-glucose) on extended incubation at 37° C.; type: biochemical; details: 50 μM 1-DNJ, pH 7.4, 37° C., over 24 hours
Description: FIG. 2A depicts the effects of 1-DNJ-HCl on recombinant human GAA (rhGAA; Myozyme®, Genzyme Corp.) activity at neutral pH (7.4) or lysosomal pH (5.2) at 37° C. GAA activity was evaluated to assess the ability of an ASSC to prolong the activity of rhGAA over time. Myozyme (45 nM) was incubated in pH 7.4 or pH 5.2 buffer with or without 50 μM 1-DNJ at 37° C. over 24 hours. Samples were assayed for GAA enzyme activity using 4-MU-α-glucose at 0, 3, 6 and 24 hours and the residual GAA activity was expressed as % of initial activity.
Residual GAA activity was determined for four formulations:
Activity was measured, based on the % of initial activity (t=0) over 24 hours. Samples were assayed for GAA enzyme activity based on the hydrolysis of the fluorogenic substrate 4-MU-α-glucose at 0, 3, 6 and 24 hours. The GAA activity was expressed as % of initial activity, i.e. residual activity.

[10] = molecular target: T7, recombinant human GAA (Myozyme®); test: SYPRO Orange GAA unfolding over time at 37° C.; type: binding; details: 50 μM DNJ added at 3 or 6 hours, pH 7.4, 37° C.
α-Glucosidase (GAA) = molecular target: T8, α-Glucosidase (GAA) (Homo sapiens, UniProt P10253); test: GAA activity in conditioned media of COS-7 cells transfected with human GAA plasmid, 72 h; type: cell-based; details: 72 hours expression
T8 construct: expressed in transfected cells; host or cells: COS-7

Molecule: O[C@H]1[C@H](O)CNC[C@@H]1C(F)F [AT3375]
- GCase activity recovered from conditioned media (GCase): increased the activity
- α-Gal A activity from conditioned media (α-Gal A [1]): increased slightly

Molecule: OC[C@H]1NC[C@H](O)[C@@H](O)[C@H]1O [DGJ, 1-deoxygalactonorjirimycin]
- α-Gal A thermal stability (melting temperature) (α-Gal A (Fabrazyme®)): increases α-Gal A thermal stability in a dose-dependent manner
- Further denaturation of α-Gal A (α-Gal A [6]): prevented further denaturation
- α-Gal A activity from conditioned media (α-Gal A [7]): increased the activities
- α-Gal A activity from conditioned media (α-Gal A [1]): increased slightly

Molecule: Myozyme: recombinant human GAA (Myozyme®, Genzyme Corp.)
- Stability of Myozyme at lysosomal versus neutral pH (thermal stability assay) ([8]; pH 5.2 versus pH 7.4, no chaperone): much more stable at lysosomal pH (5.2) than at neutral pH (7.4)

Now from value to molecule, other results behind:

- Stability of recombinant human GCase upon thermal challenge ([2]; 10 μM IFG, pH 7.4 (Example 8)): significantly increases stability
- GCase unfolding ([3]; 10 μM IFG, pH 7.4, 37° C., over 24 hours (Example 5)): prevented GCase unfolding
- Stability of GCase (unfolding over time) ([3]; 10 μM and 100 μM IFG, neutral pH, 37° C. (Example 9)): significantly increases the stability
- Further denaturation of GCase ([3]; 50 μM IFG added at 3 or 6 hours, pH 7.4, 37° C.): prevented further denaturation
- Stability of GCase activity over time (GCase (Cerezyme®) [5]): significantly increases the stability
- GCase activity recovered from conditioned media (GCase): increased the activity
- Acid β-glucosidase activity from conditioned media (acid β-glucosidase): increased the activities
Molecule: OC[C@H]1CNC[C@@H](O)[C@@H]1O [IFG, (3R,4R,5R)-5-(hydroxymethyl)-3,4-piperidinediol]
- GCase thermal stability (melting temperature) ([2]; 10 and 100 μM IFG, pH 7.4): increases GCase thermal stability in a dose-dependent manner
- Stability of GCase activity in human plasma (GCase (Cerezyme®) [4]): significantly increases the stability of GCase and prevents enzyme inactivation

- GAA thermostability (melting temperature) ([8]; 1, 10, 100 μM 1-DNJ-HCl, pH 7.4, dose-dependent): increases GAA thermostability
- Further denaturation of GAA [10]: prevented further denaturation
- GAA activity recovered from conditioned media (α-Glucosidase (GAA)): little effect
Molecule: OC[C@H]1NC[C@H](O)[C@@H](O)[C@@H]1O [DNJ, 1-deoxynorjirimycin]
- GAA thermal stability (heat required to denature) ([8]; 100 μM DNJ, pH 7.4, versus formulation without ASSC): required significantly more heat to denature
- Effect on loss of GAA enzyme activity [9]: ameliorates the loss of GAA enzyme activity
